Measurements reported in patent US11911450B2, “Method for managing pain” (UNIVERSITY OF MIAMI, priority 2017, dated 2024).

Assays:
[1] = molecular target: T1, ITPR1 (Homo sapiens, UniProt Q14643); test: NGF-induced intracellular calcium release / ITPR1 activation in NBL cells; assay type: cell-based; parameters: endogenous in cells; conditions: NBL cells
[2] = system: RYR-dependent calcium release; test: 5HT-induced RYR-dependent cytoplasmic calcium release in NBL cells (Fura2 imaging); assay type: cell-based, human; conditions: for 5HT-induced cytoplasmic calcium release, effect of ryanodine: 50 μM 5HT
Procedure: Pharmacodynamics—Bioassay of Calcium Release: Fifteen mm glass coverslips (cat #72228 Electron Microscopy Sciences, Hatfield, PA) were coated with poly-D-Lysine (Sigma) followed by Laminin and 1×10^5 cells were seeded on each coverslip. Twenty-four hrs later, cells were transfected with AAV2-ITR, AAV2-V5-Car10, or AAV2-V5-CA10 vectors as previously described. In embodiments wherein AAV2 is not employed, other expression vectors (including viral vectors) are used. Fura-2AM (cat #F1221 ThermoFisher scientific, Waltham, MA) was dissolved in DMSO (50 μg in 50 μl) and 1% pluronic acid-127 (cat #P2443 Sigma, St Louis, MO) as the stock solution. Forty eight hrs after seeding, cells were loaded with 2 μM Fura-2AM dye for 45 min at room temperature in the dark in a standard Ca+2 buffer solution containing: 125 mM NaCl, 2 mM MgCl, 4.5 mM KCl, 10 glucose, 20 mM HEPES, 2 mM CaCl2, pH 7.4.25. Following dye loading, coverslips were washed with Ca^+2 buffer solution. For imaging and ATP stimulation experiments, coverslips were placed in a recording chamber (cat #QR-42LP Warner instruments Hamden, CT) on a Leica DMI6000B microscope, and perfused at room temperature (˜22° C.) with Ca^+2 free buffer solution containing: 125 mM NaCl, 4 mM MgCl, 4.5 mM KCl, 10 mM glucose, 20 mM HEPES, pH 7.4. For the ratiometric imaging of Fura-2AM, the excitation light was filtered through an ultra high-speed wavelength switcher to provide wavelengths of 340 and 384 nm and capture by a high-speed digital camera (Leica DFC365FX). Activation of ITPR1 channels was achieved via application of 1 μM ATP (Sigma, St Louis, MO). Data acquisition and processing was made using the LAXS software. Regions of interest over the field of view were selected and the mean pixels intensity at each frame was measured. Data was plotted as ratio fluorescence intensity versus time and subsequently converted to a relative scale.
It was also determined that 5HT-induced RYR-dependent calcium release in NBL cells is inhibited by ryanodine. […]

[3] = system: ITPR1-mediated cytoplasmic calcium release; test: ATP-induced cytoplasmic calcium release in HEK293 cells (Fura-2 imaging); assay type: cell-based, human
Procedure: Cell culture and transfections: Human neuronal-derived (e.g., NBL), human non-neuronal derived (e.g., HEK293) cells, or dispersed rodent primary DRG cells can be used. HEK293 cells (cat #CRL-1573 ATCC Manassas, VA) were cultured in Dulbecco's modified Eagle's medium (DMEM-Glutamax cat #0566; Invitrogen) supplemented with 10% fetal bovine serum, FBS (cat #16140 ThermoFisher scientific, Waltham, MA) and 1% penicillin/streptomycin (cat #15140 ThermoFisher scientific, Waltham, MA). Cells were seeded in six-well plates at density of 1.0×10^5 cells per well. […]
Pharmacodynamics—Bioassay of Calcium Release: Fifteen mm glass coverslips (cat #72228 Electron Microscopy Sciences, Hatfield, PA) were coated with poly-D-Lysine (Sigma) followed by Laminin and 1×10^5 cells were seeded on each coverslip. […] Regions of interest over the field of view were selected and the mean pixels intensity at each frame was measured. Data was plotted as ratio fluorescence intensity versus time and subsequently converted to a relative scale.
To further examine whether FLAG-CA8-204 (data not shown), V5-Car10 and V5-CA10 overexpression can inhibit ATP-induced calcium release, HEK293 cells were infected with each if these constructs and real-time intracellular calcium concentrations at baseline and in response to ATP stimulation were measured (FIG. 2). […]

[4] = morphine dose vs paw withdrawal latency; assay type: in vivo, mouse; conditions: approximately 30 minutes after intraperitoneal dosing; 10, 30, and 60 mg/kg
Procedure: Behavioral tests: Thermal and mechanical sensitivity was measured by Hargreaves test and von Frey filament threshold calculations respectively. See, e.g., Boyce-Rustay et al. Methods Mol Biol. 2010; 617:41-55; Hargreaves et al., Pain. 1988; 32(1):77-88; and Chaplan et al., J Neurosci Methods. 1994; 53(1):55-63. Tests were performed in a quiet room with daylight-like illumination. Animals were habituated to the behavioral room and apparatus for at least 60 minutes for 1 week before a blinded investigator collected data. The thermal sensitivity test was performed using an IITC Plantar Analgesia Meter apparatus (IITC Life sciences, Woodland Hills, CA) with a plastic box placed on a glass plate of constant temperature (30° C.). The mouse plantar surface was exposed to a beam of radiant heat to induced paw withdrawal. Baseline latencies were adjusted to 5-9 sec with a maximum of 20 sec as cutoff to prevent potential injury. The latency time in seconds from the onset of the intense light beam to paw withdrawal was defined as the withdrawal latency of the paw. […] The mouse hind paw was pressed with one of a series of von Frey filaments with logarithmically incrementing stiffness (Stoelting Co, Wood Dale, IL) presented perpendicular to the plantar surface of each hind paw for 1-2 seconds, the 50% threshold was determined using the Up- and Down method.

[5] = molecular target: T1, ITPR1; test: NGF-induced intracellular calcium release in HEK293 cells; assay type: cell-based; parameters: endogenous in cells; host or cells: HEK293 (ATCC CRL-1573); conditions: data not shown

T1 sequence (Q14643 whole entry): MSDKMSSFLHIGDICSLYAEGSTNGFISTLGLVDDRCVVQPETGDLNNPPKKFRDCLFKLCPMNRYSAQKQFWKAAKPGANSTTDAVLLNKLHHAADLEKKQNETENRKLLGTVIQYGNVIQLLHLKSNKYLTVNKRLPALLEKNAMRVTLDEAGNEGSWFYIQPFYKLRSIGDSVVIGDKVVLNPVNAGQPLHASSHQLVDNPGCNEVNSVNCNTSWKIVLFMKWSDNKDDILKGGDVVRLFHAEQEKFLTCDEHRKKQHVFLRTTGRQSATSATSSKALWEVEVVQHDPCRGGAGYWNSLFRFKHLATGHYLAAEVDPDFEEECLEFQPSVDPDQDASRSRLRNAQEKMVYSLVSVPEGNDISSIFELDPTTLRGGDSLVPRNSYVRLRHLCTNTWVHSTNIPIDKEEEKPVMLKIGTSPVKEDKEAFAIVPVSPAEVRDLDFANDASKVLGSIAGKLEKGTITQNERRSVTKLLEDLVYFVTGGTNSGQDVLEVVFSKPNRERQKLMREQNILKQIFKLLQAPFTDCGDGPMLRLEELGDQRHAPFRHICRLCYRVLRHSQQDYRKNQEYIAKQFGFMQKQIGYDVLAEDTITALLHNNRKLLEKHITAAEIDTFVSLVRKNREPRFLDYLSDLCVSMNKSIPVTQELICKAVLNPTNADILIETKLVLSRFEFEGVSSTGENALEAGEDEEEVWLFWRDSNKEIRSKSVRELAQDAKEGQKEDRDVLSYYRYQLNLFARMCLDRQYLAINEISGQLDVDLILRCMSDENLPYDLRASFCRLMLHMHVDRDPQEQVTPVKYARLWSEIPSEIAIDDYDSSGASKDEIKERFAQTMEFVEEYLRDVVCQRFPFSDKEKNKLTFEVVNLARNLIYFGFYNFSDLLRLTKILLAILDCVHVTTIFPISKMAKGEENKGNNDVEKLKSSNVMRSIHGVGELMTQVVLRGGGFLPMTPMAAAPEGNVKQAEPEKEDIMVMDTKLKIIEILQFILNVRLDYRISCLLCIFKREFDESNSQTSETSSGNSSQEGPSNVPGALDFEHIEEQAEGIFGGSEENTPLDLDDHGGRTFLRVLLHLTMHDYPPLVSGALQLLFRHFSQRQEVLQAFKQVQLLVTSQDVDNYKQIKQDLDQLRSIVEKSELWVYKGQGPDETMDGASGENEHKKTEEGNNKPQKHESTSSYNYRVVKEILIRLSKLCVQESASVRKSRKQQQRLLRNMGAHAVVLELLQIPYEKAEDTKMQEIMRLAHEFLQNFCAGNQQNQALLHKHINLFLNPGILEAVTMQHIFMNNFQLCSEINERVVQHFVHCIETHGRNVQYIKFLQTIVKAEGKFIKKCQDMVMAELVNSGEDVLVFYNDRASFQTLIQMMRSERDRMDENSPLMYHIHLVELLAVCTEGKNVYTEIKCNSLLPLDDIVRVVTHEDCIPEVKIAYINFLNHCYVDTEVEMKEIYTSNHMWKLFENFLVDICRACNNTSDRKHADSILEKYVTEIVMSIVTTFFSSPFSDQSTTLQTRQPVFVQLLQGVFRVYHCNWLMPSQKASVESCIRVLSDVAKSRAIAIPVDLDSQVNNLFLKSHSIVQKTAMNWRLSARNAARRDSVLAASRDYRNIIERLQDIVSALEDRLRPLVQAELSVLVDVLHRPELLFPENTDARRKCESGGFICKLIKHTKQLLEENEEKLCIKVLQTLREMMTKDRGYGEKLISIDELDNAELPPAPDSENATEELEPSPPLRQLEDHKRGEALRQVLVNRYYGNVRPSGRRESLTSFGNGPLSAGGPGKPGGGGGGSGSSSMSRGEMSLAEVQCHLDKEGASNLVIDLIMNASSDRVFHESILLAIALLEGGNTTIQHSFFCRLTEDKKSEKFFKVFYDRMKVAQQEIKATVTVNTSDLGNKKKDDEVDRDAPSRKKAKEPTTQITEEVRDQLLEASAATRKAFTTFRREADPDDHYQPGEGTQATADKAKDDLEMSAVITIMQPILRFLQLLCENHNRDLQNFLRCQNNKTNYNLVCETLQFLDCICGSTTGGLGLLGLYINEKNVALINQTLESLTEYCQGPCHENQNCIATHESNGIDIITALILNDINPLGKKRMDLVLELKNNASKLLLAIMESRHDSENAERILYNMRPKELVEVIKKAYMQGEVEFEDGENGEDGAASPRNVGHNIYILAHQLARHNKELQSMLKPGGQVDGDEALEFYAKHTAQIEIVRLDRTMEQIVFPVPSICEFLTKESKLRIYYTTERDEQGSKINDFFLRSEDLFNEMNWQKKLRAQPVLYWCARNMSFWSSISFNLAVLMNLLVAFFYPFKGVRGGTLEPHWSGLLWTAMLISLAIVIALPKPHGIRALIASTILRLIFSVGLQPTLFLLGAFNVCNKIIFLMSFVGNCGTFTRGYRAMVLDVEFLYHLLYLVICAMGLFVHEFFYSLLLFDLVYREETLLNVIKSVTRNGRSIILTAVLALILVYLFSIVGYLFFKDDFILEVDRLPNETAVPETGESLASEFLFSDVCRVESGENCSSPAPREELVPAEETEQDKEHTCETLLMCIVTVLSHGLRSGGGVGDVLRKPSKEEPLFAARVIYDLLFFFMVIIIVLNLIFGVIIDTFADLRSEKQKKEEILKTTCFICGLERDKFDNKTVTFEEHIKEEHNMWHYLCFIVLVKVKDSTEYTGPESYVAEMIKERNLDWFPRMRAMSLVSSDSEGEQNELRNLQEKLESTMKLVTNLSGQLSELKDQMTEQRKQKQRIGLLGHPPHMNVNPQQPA

Molecule: NCCOB(c1ccccc1)c1ccccc1 [2-APB, reference compound]
- NGF-induced intracellular calcium release [1]: nearly completely inhibited

Molecule: NCCc1c[nH]c2ccc(O)cc12 [5HT, reference compound]
- effect of 5HT on calcium release [2]: stimulates calcium release

Molecule: Nc1ncnc2c1ncn2[C@@H]1O[C@H](COP(=O)(O)OP(=O)(O)OP(=O)(O)O)[C@@H](O)[C@H]1O [ATP, reference compound]
- effect of ATP on cytosolic free calcium [3]: stimulated calcium release and an increase in cytosolic free calcium levels in a dose-dependent manner

Molecule: CN1CC[C@]23c4c5ccc(O)c4O[C@H]2[C@@H](O)C=C[C@H]3[C@H]1C5 [morphine, reference compound]
- paw withdrawal latency [4]: Elevations were significant when compared with saline

Molecule: NGF: nerve growth factor, stimulant of calcium release
- effect of NGF on intracellular calcium release [5]: increased intracellular calcium release

Molecule: ryanodine [reference compound]
- 5HT-induced cytoplasmic calcium release, effect of ryanodine ([2]; 10 nM ryanodine): nearly completely inhibited
- 5HT-induced cytoplasmic calcium release, effect of ryanodine ([2]; dose-dependent, vs vehicle): significantly inhibited
